Assay results published in article PMC10382584, “Macrocyclization of linear molecules by deep learning to facilitate macrocyclic drug candidates discovery” (Nature Communications, 2023).

Assays:
Assay in all cases: biochemical
Set-up in all cases: DiscoveRx KINOMEscan competition binding, percent of DMSO control signal at 100 nM
Conditions in all cases: read-out: Fig. 4a / Percent Control / Compound 1; percent of DMSO control, competition binding
[1] = biological target: T1, ABL1(Q252H)-phosphorylated (Homo sapiens, UniProt P00519, Q252H)
T1 construct: phosphorylated

[2] = biological target: AKT2 (Homo sapiens, UniProt P31751)
[3] = biological target: BMPR1B (Homo sapiens, UniProt O00238)
[4] = biological target: T2, CDC2L5 (Homo sapiens, UniProt Q14004)
T2 construct: gene CDK13

[5] = biological target: CSNK1E (Homo sapiens, UniProt P49674)
[6] = biological target: EIF2AK1 (Homo sapiens, UniProt Q9BQI3)
[7] = biological target: EPHB2 (Homo sapiens, UniProt P29323)
[8] = biological target: ERBB4 (Homo sapiens, UniProt Q15303)
[9] = biological target: T3, ERK4 (Homo sapiens, UniProt P31152)
T3 construct: gene MAPK4

[10] = biological target: FGR (Homo sapiens, UniProt P09769)
[11] = biological target: HCK (Homo sapiens, UniProt P08631)
[12] = biological target: INSR (Homo sapiens, UniProt P06213)
[13] = biological target: T4, JAK1(JH1domain-catalytic) (Homo sapiens, UniProt P23458)
T4 construct: JH1domain-catalytic

[14] = biological target: MAP4K3 (Homo sapiens, UniProt Q8IVH8)
[15] = biological target: T5, MEK1 (Homo sapiens, UniProt Q02750)
T5 construct: gene MAP2K1

[16] = biological target: T6, MLK2 (Homo sapiens, UniProt Q02779)
T6 construct: gene MAP3K10

[17] = biological target: PIK3C2B (Homo sapiens, UniProt O00750)
[18] = biological target: PRKCI (Homo sapiens, UniProt P41743)
[19] = biological target: T7, PYK2 (Homo sapiens, UniProt Q14289)
T7 construct: gene PTK2B

[20] = biological target: RET(M918T) (Homo sapiens, UniProt P07949, M918T)
[21] = biological target: RET(V804L) (Homo sapiens, UniProt P07949, V804L)
[22] = biological target: SBK1 (Homo sapiens, UniProt Q52WX2)
[23] = biological target: SIK2 (Homo sapiens, UniProt Q9H0K1)
[24] = biological target: TLK2 (Homo sapiens, UniProt Q86UE8)
[25] = biological target: T8, YES (Homo sapiens, UniProt P07947)
T8 construct: gene YES1
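Note: KINOMEscan kinase panel binding assay, signal normalized between DMSO as 100% and a positive control compound as 0%.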

Sequence of PRKCI (P41743 whole entry): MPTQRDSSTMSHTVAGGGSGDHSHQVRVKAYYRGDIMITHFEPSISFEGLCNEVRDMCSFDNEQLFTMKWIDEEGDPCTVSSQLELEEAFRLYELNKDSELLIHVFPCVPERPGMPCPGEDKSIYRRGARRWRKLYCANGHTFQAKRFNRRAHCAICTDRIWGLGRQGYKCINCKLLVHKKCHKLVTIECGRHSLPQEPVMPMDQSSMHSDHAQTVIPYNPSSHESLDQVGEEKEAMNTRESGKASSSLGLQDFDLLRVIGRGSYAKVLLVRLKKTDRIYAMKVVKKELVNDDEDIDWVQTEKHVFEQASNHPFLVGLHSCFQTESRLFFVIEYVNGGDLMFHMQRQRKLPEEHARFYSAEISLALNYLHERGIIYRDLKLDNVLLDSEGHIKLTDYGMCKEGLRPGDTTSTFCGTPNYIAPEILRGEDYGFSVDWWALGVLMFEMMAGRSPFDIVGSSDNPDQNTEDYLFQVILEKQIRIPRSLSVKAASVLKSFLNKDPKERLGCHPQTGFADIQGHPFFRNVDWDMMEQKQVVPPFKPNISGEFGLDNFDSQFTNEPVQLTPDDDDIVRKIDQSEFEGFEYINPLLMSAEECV
Sequence of RET(M918T) (P07949 whole entry M918T): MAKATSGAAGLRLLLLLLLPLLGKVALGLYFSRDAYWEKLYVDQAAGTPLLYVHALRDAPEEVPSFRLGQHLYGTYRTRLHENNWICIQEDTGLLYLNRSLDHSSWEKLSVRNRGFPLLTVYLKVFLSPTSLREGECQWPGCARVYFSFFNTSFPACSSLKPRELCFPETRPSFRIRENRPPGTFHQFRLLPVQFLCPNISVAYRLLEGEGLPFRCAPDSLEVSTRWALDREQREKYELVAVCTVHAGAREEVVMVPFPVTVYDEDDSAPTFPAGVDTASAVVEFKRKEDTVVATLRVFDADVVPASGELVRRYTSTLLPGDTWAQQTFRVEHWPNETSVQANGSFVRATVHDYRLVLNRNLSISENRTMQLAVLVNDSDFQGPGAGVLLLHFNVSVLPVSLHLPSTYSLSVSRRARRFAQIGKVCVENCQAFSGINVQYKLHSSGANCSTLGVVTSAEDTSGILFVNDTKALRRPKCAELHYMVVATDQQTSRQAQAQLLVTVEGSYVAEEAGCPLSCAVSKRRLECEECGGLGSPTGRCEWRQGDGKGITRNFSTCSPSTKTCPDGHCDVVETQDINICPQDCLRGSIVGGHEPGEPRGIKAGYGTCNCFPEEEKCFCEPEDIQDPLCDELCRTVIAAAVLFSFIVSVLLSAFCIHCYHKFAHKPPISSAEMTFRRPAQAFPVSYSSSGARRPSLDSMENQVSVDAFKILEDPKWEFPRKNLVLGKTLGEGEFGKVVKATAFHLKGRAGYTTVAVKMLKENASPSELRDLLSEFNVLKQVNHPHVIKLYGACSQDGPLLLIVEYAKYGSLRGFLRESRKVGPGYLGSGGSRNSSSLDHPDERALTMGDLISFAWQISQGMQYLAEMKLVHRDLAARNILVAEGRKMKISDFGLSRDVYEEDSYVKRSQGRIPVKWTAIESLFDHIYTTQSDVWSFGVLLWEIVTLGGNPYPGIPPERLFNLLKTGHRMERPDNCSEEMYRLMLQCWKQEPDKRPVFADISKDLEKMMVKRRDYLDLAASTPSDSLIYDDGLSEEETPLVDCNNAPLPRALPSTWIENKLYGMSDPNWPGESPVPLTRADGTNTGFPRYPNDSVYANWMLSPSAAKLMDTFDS
T8 sequence (P07947 whole entry): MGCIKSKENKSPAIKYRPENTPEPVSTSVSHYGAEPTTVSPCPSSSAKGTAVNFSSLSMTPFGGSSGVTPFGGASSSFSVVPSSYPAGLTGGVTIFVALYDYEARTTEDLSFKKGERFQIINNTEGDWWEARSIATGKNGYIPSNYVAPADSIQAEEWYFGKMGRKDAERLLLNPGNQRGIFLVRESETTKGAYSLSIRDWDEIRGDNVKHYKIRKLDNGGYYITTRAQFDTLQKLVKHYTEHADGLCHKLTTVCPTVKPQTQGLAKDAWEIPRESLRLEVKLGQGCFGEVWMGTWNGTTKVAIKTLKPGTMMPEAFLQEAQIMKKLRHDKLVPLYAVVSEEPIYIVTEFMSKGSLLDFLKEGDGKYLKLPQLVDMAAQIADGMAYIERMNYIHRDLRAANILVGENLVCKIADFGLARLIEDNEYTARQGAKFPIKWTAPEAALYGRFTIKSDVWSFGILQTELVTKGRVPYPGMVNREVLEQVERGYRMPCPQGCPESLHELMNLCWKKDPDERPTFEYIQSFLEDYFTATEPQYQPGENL
Sequence of EPHB2 (P29323 whole entry): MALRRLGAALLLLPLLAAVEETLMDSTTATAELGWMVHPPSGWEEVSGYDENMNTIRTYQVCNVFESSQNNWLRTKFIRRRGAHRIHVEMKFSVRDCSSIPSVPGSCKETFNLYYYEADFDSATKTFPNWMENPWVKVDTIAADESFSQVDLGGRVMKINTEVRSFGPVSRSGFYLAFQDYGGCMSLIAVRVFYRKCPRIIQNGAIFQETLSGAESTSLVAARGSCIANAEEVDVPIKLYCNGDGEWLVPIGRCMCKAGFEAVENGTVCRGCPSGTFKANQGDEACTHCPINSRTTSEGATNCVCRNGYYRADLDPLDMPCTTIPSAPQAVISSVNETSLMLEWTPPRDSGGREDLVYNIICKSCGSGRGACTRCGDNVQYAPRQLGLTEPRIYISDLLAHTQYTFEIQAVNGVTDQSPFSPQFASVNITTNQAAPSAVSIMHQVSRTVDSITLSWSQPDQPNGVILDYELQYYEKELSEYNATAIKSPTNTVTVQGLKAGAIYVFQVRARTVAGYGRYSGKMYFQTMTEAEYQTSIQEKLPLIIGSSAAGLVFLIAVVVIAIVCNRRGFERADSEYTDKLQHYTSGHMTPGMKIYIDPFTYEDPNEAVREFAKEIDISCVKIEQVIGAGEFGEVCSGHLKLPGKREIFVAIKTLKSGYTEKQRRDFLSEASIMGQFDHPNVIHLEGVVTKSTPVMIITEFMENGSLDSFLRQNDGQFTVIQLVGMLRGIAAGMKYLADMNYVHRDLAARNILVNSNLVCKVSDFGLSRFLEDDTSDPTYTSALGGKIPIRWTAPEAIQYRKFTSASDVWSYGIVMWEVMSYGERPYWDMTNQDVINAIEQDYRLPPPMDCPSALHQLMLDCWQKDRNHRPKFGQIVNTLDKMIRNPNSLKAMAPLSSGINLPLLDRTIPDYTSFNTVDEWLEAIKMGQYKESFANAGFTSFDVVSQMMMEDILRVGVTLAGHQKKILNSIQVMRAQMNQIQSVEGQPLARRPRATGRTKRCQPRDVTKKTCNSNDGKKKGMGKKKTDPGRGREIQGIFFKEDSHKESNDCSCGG
T6 sequence (Q02779 whole entry): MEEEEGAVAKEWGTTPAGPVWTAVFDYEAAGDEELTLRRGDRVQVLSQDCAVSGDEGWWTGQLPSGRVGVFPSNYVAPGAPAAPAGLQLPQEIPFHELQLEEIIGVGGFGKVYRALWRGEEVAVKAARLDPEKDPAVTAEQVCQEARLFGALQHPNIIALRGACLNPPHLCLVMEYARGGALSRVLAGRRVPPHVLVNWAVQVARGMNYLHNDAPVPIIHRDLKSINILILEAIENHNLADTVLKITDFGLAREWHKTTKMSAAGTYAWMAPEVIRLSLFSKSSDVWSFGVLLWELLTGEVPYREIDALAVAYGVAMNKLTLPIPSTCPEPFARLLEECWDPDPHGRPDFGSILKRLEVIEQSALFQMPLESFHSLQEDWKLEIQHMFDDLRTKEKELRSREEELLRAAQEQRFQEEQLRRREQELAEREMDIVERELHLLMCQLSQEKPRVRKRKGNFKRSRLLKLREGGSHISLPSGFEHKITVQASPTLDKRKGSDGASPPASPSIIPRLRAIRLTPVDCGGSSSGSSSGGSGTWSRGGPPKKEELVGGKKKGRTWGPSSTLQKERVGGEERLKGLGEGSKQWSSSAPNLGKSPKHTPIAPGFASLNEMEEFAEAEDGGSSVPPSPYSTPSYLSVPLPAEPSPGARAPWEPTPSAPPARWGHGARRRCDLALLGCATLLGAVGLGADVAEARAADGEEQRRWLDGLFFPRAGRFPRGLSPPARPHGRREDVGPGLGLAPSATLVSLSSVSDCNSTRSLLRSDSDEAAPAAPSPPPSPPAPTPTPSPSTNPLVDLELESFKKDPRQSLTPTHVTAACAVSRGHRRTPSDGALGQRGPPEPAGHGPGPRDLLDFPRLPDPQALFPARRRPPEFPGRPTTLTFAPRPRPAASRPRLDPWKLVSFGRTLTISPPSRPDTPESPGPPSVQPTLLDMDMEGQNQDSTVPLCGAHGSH
Sequence of AKT2 (P31751 whole entry): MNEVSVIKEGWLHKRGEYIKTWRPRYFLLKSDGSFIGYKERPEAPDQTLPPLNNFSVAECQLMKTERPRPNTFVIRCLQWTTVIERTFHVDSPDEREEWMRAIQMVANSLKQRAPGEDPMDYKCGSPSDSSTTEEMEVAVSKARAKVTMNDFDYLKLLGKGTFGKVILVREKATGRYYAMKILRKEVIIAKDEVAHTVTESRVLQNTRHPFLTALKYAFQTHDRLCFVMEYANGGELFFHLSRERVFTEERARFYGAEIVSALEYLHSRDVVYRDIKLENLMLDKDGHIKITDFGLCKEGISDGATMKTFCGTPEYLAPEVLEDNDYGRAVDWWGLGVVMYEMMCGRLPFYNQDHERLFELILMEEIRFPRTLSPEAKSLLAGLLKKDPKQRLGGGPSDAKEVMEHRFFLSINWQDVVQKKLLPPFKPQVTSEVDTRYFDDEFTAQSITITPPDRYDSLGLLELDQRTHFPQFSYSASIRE
Sequence of RET(V804L) (P07949 whole entry V804L): as the sequence (P07949 whole entry M918T) above, with V804L, T918M counted along it

Cc1cnc2nc1Nc1cccc(c1)COCc1cc(ccc1OCCN1CCCC1)N2 [Compound 1]
remaining binding at 0.1 µM [1]: 59%
remaining binding at 0.1 µM [2]: 89%
remaining binding at 0.1 µM [3]: 63%
remaining binding at 0.1 µM [4]: 81%
remaining binding at 0.1 µM [5]: 70%
remaining binding at 0.1 µM [6]: 76%
remaining binding at 0.1 µM [7]: 88%
remaining binding at 0.1 µM [8]: 82%
remaining binding at 0.1 µM [9]: 81%
remaining binding at 0.1 µM [10]: 100%
remaining binding at 0.1 µM [11]: 100%
remaining binding at 0.1 µM [12]: 84%
remaining binding at 0.1 µM [13]: 32%
remaining binding at 0.1 µM [14]: 83%
remaining binding at 0.1 µM [15]: 77%
remaining binding at 0.1 µM [16]: 98%
remaining binding at 0.1 µM [17]: 97%
remaining binding at 0.1 µM [18]: 80%
remaining binding at 0.1 µM [19]: 82%
remaining binding at 0.1 µM [20]: 96%
remaining binding at 0.1 µM [21]: 88%
remaining binding at 0.1 µM [22]: 57%
remaining binding at 0.1 µM [23]: 94%
remaining binding at 0.1 µM [24]: 100%
remaining binding at 0.1 µM [25]: 80%
